Columns and labels:
Experiment in all cases: relative viability (nuclei count vs DMSO), 5 days (fraction); higher = more cells survive
Seliciclib + Palbociclib = compound: CC[C@H](CO)Nc1nc(NCc2ccccc2)c2ncn(C(C)C)c2n1 [Seliciclib] + CC(=O)c1c(C)c2cnc(Nc3ccc(N4CCNCC4)cn3)nc2n(C2CCCC2)c1=O [Palbociclib] (partner 0.5 µM)
Summary of the method: (§1)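 Each reported value is a median over duplicate plates. It expresses relative viability: treated-well nuclei count divided by vehicle-well nuclei count. Lung cancer cell lines in 1536-well plates were dosed by pin tool a day after seeding, alone with one drug or with a fixed anchor-drug dose plus five library-drug doses (not always all listed) in √10 steps, and nuclei were counted after 5 days.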

Seliciclib + Alpelisib = compound: CC[C@H](CO)Nc1nc(NCc2ccccc2)c2ncn(C(C)C)c2n1 [Seliciclib] + Cc1nc(NC(=O)N2CCC[C@H]2C(N)=O)sc1-c1ccnc(C(C)(C)C(F)(F)F)c1 [Alpelisib] (partner 2 µM)
Summary of the method: as §1

Seliciclib + Pemetrexed = compound: CC[C@H](CO)Nc1nc(NCc2ccccc2)c2ncn(C(C)C)c2n1 [Seliciclib] + Nc1nc2[nH]cc(CCc3ccc(C(=O)N[C@@H](CCC(=O)O)C(=O)O)cc3)c2c(=O)[nH]1 [Pemetrexed] (partner 0.2 µM)
Summary of the method: as §1

Seliciclib + Olaparib = compound: CC[C@H](CO)Nc1nc(NCc2ccccc2)c2ncn(C(C)C)c2n1 [Seliciclib] + O=C(c1cc(Cc2n[nH]c(=O)c3ccccc23)ccc1F)N1CCN(C(=O)C2CC2)CC1 [Olaparib] (partner 8 µM)
Summary of the method: as §1

Row | Cell Line | relative viability (Seliciclib + Palbociclib; first compound 0.08 µM) | relative viability (Seliciclib + Palbociclib; first compound 0.253 µM) | relative viability (Seliciclib + Palbociclib; first compound 0.8 µM) | relative viability (Seliciclib + Palbociclib; first compound 2.53 µM) | relative viability (Seliciclib + Palbociclib; first compound 8 µM) | relative viability (Seliciclib + Alpelisib; first compound 0.08 µM) | relative viability (Seliciclib + Alpelisib; first compound 0.253 µM) | relative viability (Seliciclib + Alpelisib; first compound 0.8 µM) | relative viability (Seliciclib + Alpelisib; first compound 2.53 µM) | relative viability (Seliciclib + Alpelisib; first compound 8 µM) | relative viability (Seliciclib + Pemetrexed; first compound 0.08 µM) | relative viability (Seliciclib + Pemetrexed; first compound 0.253 µM) | relative viability (Seliciclib + Pemetrexed; first compound 0.8 µM) | relative viability (Seliciclib + Pemetrexed; first compound 2.53 µM) | relative viability (Seliciclib + Pemetrexed; first compound 8 µM) | relative viability (Seliciclib + Olaparib; first compound 0.08 µM) | relative viability (Seliciclib + Olaparib; first compound 0.253 µM) | relative viability (Seliciclib + Olaparib; first compound 0.8 µM) | relative viability (Seliciclib + Olaparib; first compound 2.53 µM) | relative viability (Seliciclib + Olaparib; first compound 8 µM)
1 | NCI-H1734 | 0.35 | 0.26 | 0.369 | 0.286 | 0.282 | 0.659 | 0.651 | 0.622 | 0.683 | 0.674 | 0.417 | 0.35 | 0.432 | 0.448 | 0.416 | 0.58 | 0.513 | 0.595 | 0.536 | 0.521
2 | NCI-H1755 | 0.417 | 0.477 | 0.342 | 0.433 | 0.412 | 0.924 | 0.946 | 0.908 | 0.991 | 0.892 | 0.385 | 0.386 | 0.431 | 0.419 | 0.467 | 0.882 | 0.914 | 0.873 | 0.885 | 0.846
3 | NCI-H1792 | 0.655 | 0.717 | 0.613 |  | 0.566 | 0.765 | 0.725 | 0.719 | 0.682 | 0.633 | 0.795 | 0.694 | 0.82 |  | 0.868 | 0.338 | 0.341 | 0.399 |  | 0.322
4 | NCI-H1793 | 0.28 | 0.258 | 0.289 | 0.289 | 0.224 | 0.641 | 0.68 | 0.508 | 0.708 | 0.742 | 0.842 | 0.741 | 0.77 | 0.857 | 0.912 | 0.942 | 0.655 | 0.834 | 1.09 | 0.761
5 | NCI-H1915 | 0.522 | 0.545 | 0.449 | 0.457 | 0.315 | 1.05 | 1.1 | 1.04 | 1.04 | 0.875 | 0.483 | 0.483 | 0.492 | 0.604 | 0.514 | 0.27 | 0.287 | 0.273 | 0.227 | 0.196
6 | NCI-H1944 | 0.354 | 0.312 | 0.28 | 0.261 | 0.268 | 0.813 | 0.859 | 0.77 | 0.904 | 0.666 | 0.575 | 0.634 | 0.453 | 0.608 | 0.428 | 0.377 | 0.394 | 0.348 | 0.425 | 0.392
7 | NCI-H1975 | 0.619 | 0.342 | 0.55 | 0.389 | 0.339 | 0.653 | 0.526 | 0.602 | 0.621 | 0.445 | 0.274 | 0.328 | 0.281 | 0.331 | 0.267 | 0.774 | 0.605 | 0.768 | 0.865 | 0.523
8 | NCI-H1993 | 0.699 | 0.567 | 0.533 | 0.547 | 0.423 | 0.728 | 0.708 | 0.716 | 0.688 | 0.669 | 0.601 | 0.597 | 0.608 | 0.507 | 0.456 | 0.892 | 0.935 | 1.05 | 0.976 | 1.01
9 | NCI-H2009 | 0.202 | 0.0934 | 0.162 | 0.155 | 0.161 | 1.14 | 1.31 | 1.15 | 1.14 | 1.23 | 1.08 | 1.17 | 1.03 | 0.981 | 1.02 | 0.734 | 0.576 | 0.724 | 0.64 | 0.706
10 | NCI-H2023 | 0.366 | 0.324 | 0.295 | 0.183 | 0.159 | 0.548 | 0.542 | 0.523 | 0.58 | 0.531 | 0.261 | 0.276 | 0.229 | 0.181 | 0.222 | 0.517 | 0.472 | 0.449 | 0.536 | 0.366
11 | NCI-H2085 | 0.472 | 0.44 | 0.419 | 0.41 | 0.314 | 0.971 | 1.19 | 0.984 | 0.926 | 0.809 | 0.979 | 1.01 | 0.856 | 0.935 | 0.727 | 0.734 | 0.845 | 0.73 | 0.738 | 0.63
12 | NCI-H2087 | 0.28 | 0.288 | 0.241 | 0.16 | 0.151 | 1.08 | 1.21 | 1.06 | 1.09 | 0.815 | 0.635 | 0.591 | 0.673 | 0.652 | 0.639 | 0.597 | 0.616 | 0.38 | 0.577 | 0.514
13 | NCI-H2126 | 0.345 | 0.332 | 0.358 | 0.315 | 0.338 | 0.681 | 0.698 | 0.753 | 0.749 | 0.673 | 0.631 | 0.683 | 0.682 | 0.515 | 0.542 | 0.886 | 0.953 | 0.888 | 0.908 | 0.745
14 | NCI-H2170 | 0.389 |  | 0.372 | 0.364 | 0.308 | 0.801 | 0.585 | 0.824 | 0.904 | 0.834 | 0.269 |  | 0.262 | 0.268 | 0.26 | 0.521 |  | 0.582 | 0.654 | 0.609
15 | NCI-H2228 | 0.851 | 0.617 | 0.714 | 0.86 | 0.507 | 0.639 | 0.69 | 0.936 | 0.658 | 0.63 | 0.325 | 0.326 | 0.337 | 0.34 | 0.344 | 0.905 | 0.649 | 0.741 | 0.577 | 0.654
16 | NCI-H2347 | 0.44 | 0.439 | 0.404 | 0.406 | 0.433 | 1.05 | 1.04 | 0.757 | 1.03 | 0.805 | 0.409 | 0.454 | 0.419 | 0.437 | 0.42 | 0.557 | 0.604 | 0.518 | 0.579 | 0.557
17 | NCI-H2405 | 0.485 | 0.483 | 0.552 | 0.361 | 0.452 | 0.718 | 0.698 | 0.642 | 0.689 | 0.729 | 1.05 | 1.23 | 1.07 | 0.825 | 0.83 | 0.88 | 0.939 | 0.934 | 0.739 | 0.724
